# Source: article PMC11277489, “Novel Piperazine Derivatives of Vindoline as Anticancer Agents” (International Journal of Molecular Sciences, 2024)
# Read-outs that look alike come from different tables or passages of the source.
# Experiments:
# Assay type in all cases: cell-based
# [1] = test system: MDA-MB-435; test: NCI60 five-dose screen, Melanoma; conditions: Homo sapiens; MDA-MB-435, Melanoma; five-dose screen; read-out: GI50
# [2] = test system: SNB-19; test: NCI60 five-dose screen, CNS Cancer; conditions: Homo sapiens; SNB-19, CNS Cancer; five-dose screen; read-out: GI50
# [3] = test system: HCT-116; test: NCI60 five-dose screen, Colon Cancer; conditions: Homo sapiens; HCT-116, Colon Cancer; five-dose screen; read-out: GI50
# [4] = test system: NCI-H226; test: NCI60 five-dose screen, Non-small Cell Lung Cancer; conditions: Homo sapiens; NCI-H226, Non-small Cell Lung Cancer; five-dose screen; read-out: GI50
# [5] = test system: SNB-75; test: NCI60 five-dose screen, CNS Cancer; conditions: Homo sapiens; SNB-75, CNS Cancer; five-dose screen; read-out: GI50
# [6] = test system: ACHN; test: NCI60 five-dose screen, Renal Cancer; conditions: Homo sapiens, Renal Cancer, five-dose screen, read-out: GI50
# [7] = test system: K-562; test: NCI60 five-dose screen, Leukemia; conditions: Homo sapiens, K562; K-562, Leukemia; five-dose screen; read-out: GI50
# [8] = test system: SW-620; test: NCI60 five-dose screen, Colon Cancer; conditions: Homo sapiens; SW-620, Colon Cancer; five-dose screen; read-out: GI50
# [9] = test system: 60 human tumor cell lines (NCI60); test: NCI60 five-dose screen, whole panel and sub-panel means; conditions: read-out: GI50 Mean
# [10] = test system: SN12C; test: NCI60 five-dose screen, Renal Cancer; conditions: Homo sapiens, Renal Cancer, five-dose screen, read-out: GI50
# [11] = test system: SK-MEL-28; test: NCI60 five-dose screen, Melanoma; conditions: Homo sapiens; SK-MEL-28, Melanoma; five-dose screen; read-out: GI50
# [12] = test system: T-47D; test: NCI60 five-dose screen, Breast Cancer; conditions: Homo sapiens, T47D; T-47D, Breast Cancer; five-dose screen; read-out: GI50
# [13] = test system: DU-145; test: NCI60 five-dose screen, Prostate Cancer; conditions: Homo sapiens; DU-145, Prostate Cancer; five-dose screen; read-out: GI50
# [14] = test system: SK-MEL-2; test: NCI60 five-dose screen, Melanoma; conditions: Homo sapiens; SK-MEL-2, Melanoma; five-dose screen; read-out: GI50
# [15] = test system: HOP-92; test: NCI60 five-dose screen, Non-small Cell Lung Cancer; conditions: Homo sapiens; HOP-92, Non-small Cell Lung Cancer; five-dose screen; read-out: GI50
# [16] = test system: HS 578T; test: NCI60 five-dose screen, Breast Cancer; conditions: Homo sapiens; HS 578T, Breast Cancer; five-dose screen; read-out: GI50
# [17] = test system: NCI-H322M; test: NCI60 five-dose screen, Non-small Cell Lung Cancer; conditions: Homo sapiens, Non-small Cell Lung Cancer, five-dose screen, read-out: GI50
# [18] = test system: NCI-H460; test: NCI60 five-dose screen, Non-small Cell Lung Cancer; conditions: Homo sapiens; NCI-H460, Non-small Cell Lung Cancer; five-dose screen; read-out: GI50
# [19] = test system: SR; test: NCI60 five-dose screen, Leukemia; conditions: Homo sapiens, Leukemia, five-dose screen, read-out: GI50
# [20] = test system: CCRF-CEM; test: NCI60 five-dose screen, Leukemia; conditions: Homo sapiens, Leukemia, five-dose screen, read-out: GI50
# [21] = test system: UO-31; test: NCI60 five-dose screen, Renal Cancer; conditions: Homo sapiens; UO-31, Renal Cancer; five-dose screen; read-out: GI50
# [22] = test system: UACC-62; test: NCI60 five-dose screen, Melanoma; conditions: Homo sapiens; UACC-62, Melanoma; five-dose screen; read-out: GI50
# [23] = test system: COLO 205; test: NCI60 five-dose screen, Colon Cancer; conditions: Homo sapiens; COLO 205, Colon Cancer; five-dose screen; read-out: GI50
# [24] = test system: OVCAR-4; test: NCI60 five-dose screen, Ovarian Cancer; conditions: Homo sapiens; OVCAR-4, Ovarian Cancer; five-dose screen; read-out: GI50
# [25] = test system: BT-549; test: NCI60 five-dose screen, Breast Cancer; conditions: Homo sapiens; BT-549, Breast Cancer; five-dose screen; read-out: GI50
# [26] = test system: IGROV1; test: NCI60 five-dose screen, Ovarian Cancer; conditions: Homo sapiens, IGROV-1; IGROV1, Ovarian Cancer; five-dose screen; read-out: GI50
# [27] = test system: NCI/ADR-RES; test: NCI60 five-dose screen, Ovarian Cancer; conditions: Homo sapiens, Ovarian Cancer, five-dose screen, read-out: GI50
# [28] = test system: OVCAR-3; test: NCI60 five-dose screen, Ovarian Cancer; conditions: Homo sapiens; OVCAR-3, Ovarian Cancer; five-dose screen; read-out: GI50
# [29] = test system: CAKI-1; test: NCI60 five-dose screen, Renal Cancer; conditions: Homo sapiens; CAKI-1, Renal Cancer; five-dose screen; read-out: GI50
# [30] = test system: MDA-MB231ATCC; test: NCI60 five-dose screen, Breast Cancer; conditions: Homo sapiens, MDA-MB-231; MDA-MB231ATCC, Breast Cancer; five-dose screen; read-out: GI50
# [31] = test system: PC-3; test: NCI60 five-dose screen, Prostate Cancer; conditions: Homo sapiens; PC-3, Prostate Cancer; five-dose screen; read-out: GI50
# [32] = test system: MALME-3M; test: NCI60 five-dose screen, Melanoma; conditions: Homo sapiens; MALME-3M, Melanoma; five-dose screen; read-out: GI50
# [33] = test system: TK-10; test: NCI60 five-dose screen, Renal Cancer; conditions: Homo sapiens; TK-10, Renal Cancer; five-dose screen; read-out: GI50
# [34] = test system: KM12; test: NCI60 five-dose screen, Colon Cancer; conditions: Homo sapiens; KM12, Colon Cancer; five-dose screen; read-out: GI50
# [35] = Homo sapiens, 60 cell, mean over all 60 cell lines
# [36] = Homo sapiens, mean over Breast Cancer panel
# [37] = Homo sapiens, mean over CNS Cancer panel
# [38] = Homo sapiens, mean over Colon Cancer panel
# [39] = Homo sapiens, mean over Leukemia panel
# [40] = Homo sapiens, mean over Melanoma panel
# [41] = Homo sapiens, mean over Non-small Cell Lung Cancer panel
# [42] = Homo sapiens, mean over Ovarian Cancer panel
# [43] = Homo sapiens, mean over Prostate Cancer panel
# [44] = Homo sapiens, mean over Renal Cancer panel
compound,measurement,setting,value
CC[C@]12C=CCN3CC[C@@]4(c5ccc(OC)cc5N(C)[C@H]4[C@@](O)(C(=O)OC)[C@@H]1OC(=O)CCC(=O)N1CCN(Cc4ccc(C(F)(F)F)cc4)CC1)[C@@H]32 [Compound 29],GI50,[1],10.5 µM
same,GI50,[2],11.8 µM
same,GI50,[3],7.76 µM
same,GI50,[4],9.77 µM
same,GI50,[5],15.5 µM
same,GI50,[6],10.7 µM
same,GI50,[7],3.8 µM
same,GI50,[8],11.5 µM
same,GI50,[9]; [35],9.76 µM
same,GI50,[9]; [36],8.72 µM
same,GI50,[9]; [37],11.1 µM
same,GI50,[9]; [38],9.71 µM
same,GI50,[9]; [39],9.07 µM
same,GI50,[9]; [40],9.42 µM
same,GI50,[9]; [41],10.4 µM
same,GI50,[9]; [42],10.6 µM
same,GI50,[9]; [43],7.3 µM
same,GI50,[9]; [44],9.9 µM
same,GI50,[10],11.5 µM
same,GI50,[11],11.8 µM
same,GI50,[12],5.25 µM
same,GI50,[13],11.2 µM
same,GI50,[14],2.82 µM
same,GI50,[15],4.27 µM
same,GI50,[16],10.2 µM
same,GI50,[17],14.5 µM
same,GI50,[18],10.5 µM
same,GI50,[19],13.8 µM
same,GI50,[20],11.8 µM
same,GI50,[21],6.92 µM
same,GI50,[22],11 µM
same,GI50,[23],7.08 µM
same,GI50,[24],5.62 µM
same,GI50,[25],15.1 µM
same,GI50,[26],10.7 µM
same,GI50,[27],12.3 µM
same,GI50,[28],6.46 µM
same,GI50,[29],8.71 µM
same,GI50,[30],14.1 µM
same,GI50,[31],3.39 µM
same,GI50,[32],11.5 µM
same,GI50,[33],12.3 µM
same,GI50,[34],11.8 µM
CC[C@]12C=CCN3CC[C@@]4(c5ccc(OC)cc5N(C)[C@H]4[C@@](O)(C(=O)OC)[C@@H]1OC(=O)CCC(=O)N1CCN(C(c4ccc(F)cc4)c4ccc(F)cc4)CC1)[C@@H]32 [Compound 31],GI50,[1],2.7 µM
same,GI50,[2],3.58 µM
same,GI50,[3],2.72 µM
same,GI50,[4],1.84 µM
same,GI50,[5],2.11 µM
same,GI50,[6],2.06 µM
same,GI50,[7],2.92 µM
same,GI50,[8],2.27 µM
same,GI50,[9]; [35],< 4 µM
same,GI50,[9]; [36],2 µM
same,GI50,[9]; [37],2.6 µM
same,GI50,[9]; [38],2.23 µM
same,GI50,[9]; [39],1.89 µM
same,GI50,[9]; [40],2.4 µM
same,GI50,[9]; [41],2.59 µM
same,GI50,[9]; [42],2.15 µM
same,GI50,[9]; [43],2.27 µM
same,GI50,[9]; [44],2.33 µM
same,GI50,[9]; mean over all 60 cell lines,2.29 µM
same,GI50,[10],1.47 µM
same,GI50,[11],3.26 µM
same,GI50,[12],2.47 µM
same,GI50,[13],2.67 µM
same,GI50,[14],1.62 µM
same,GI50,[15],1.99 µM
same,GI50,[16],1.74 µM
same,GI50,[17],4.99 µM
same,GI50,[18],1.93 µM
same,GI50,[19],1.63 µM
same,GI50,[20],2.11 µM
same,GI50,[21],2.32 µM
same,GI50,[22],1.92 µM
same,GI50,[23],2.82 µM
same,GI50,[24],1.62 µM
same,GI50,[25],1.81 µM
same,GI50,[26],2.5 µM
same,GI50,[27],1.95 µM
same,GI50,[28],1.6 µM
same,GI50,[29],3.07 µM
same,GI50,[30],3.02 µM
same,GI50,[31],1.86 µM
same,GI50,[32],2.2 µM
same,GI50,[33],2.57 µM
same,GI50,[34],2.36 µM
